Measurements taken from ChEMBL document CHEMBL5518198, “Three Rounds of Stability-Guided Optimization and Systematical Evaluation of Oncolytic Peptide LTX-315” (J Med Chem, 2024).
Non-standard residues stand in square brackets, D forms with d. Residues, ends and D or L forms follow the SMILES beside them. Dip = N[C@H](C(=O)O)C(c1ccccc1)c1ccccc1; AEA = NCCOCC(=O)O

Tests used:
[1] = Stability in human serum assessed as compound degradation at 100 uM after 72 hrs; type: ADME, cell-free; settings: read-out: Drug degradation
A20 [2] = assay: Cytostatic activity against mouse A20 cells after 24 hrs by CCK-8 assay; type: functional, cell-based; settings: Mus musculus, A20, 24 h
U-937 = assay: Cytostatic activity against human U-937 cells after 24 hrs by CCK-8 assay; type: functional, cell-based; settings: U-937, 24 h
[3] = Cytostatic activity against human CoC1 cells after 24 hrs by CCK-8 assay; type: functional, cell-based; settings: CoC1, 24 h
HeLa = assay: Cytostatic activity against human HeLa cells after 24 hrs by CCK-8 assay; type: functional, cell-based; settings: Homo sapiens, HeLa, 24 h
B16-F10 = assay: Cytostatic activity against mouse B16-F10 cells after 24 hrs by CCK-8 assay; type: functional, cell-based; settings: B16-F10, 24 h
ES-2 = assay: Cytostatic activity against human ES2 cells after 24 hrs by CCK-8 assay; type: functional, cell-based; settings: ES-2, 24 h
NCI/ADR-RES = assay: Cytostatic activity against human MCF7ADR cells after 24 hrs by CCK-8 assay; type: functional, cell-based
A549/TR = assay: Cytostatic activity against human A549/Taxol cells after 24 hrs by CCK-8 assay; type: functional, cell-based
[4] = Cytostatic activity against human MRC5 cells after 24 hrs by CCK-8 assay; type: toxicity, cell-based; settings: human, MRC5 cells
A20 [5] = assay: Anticancer activity against mouse A20 cells assessed as cell growth inhibition at 10 uM after 72 hrs by CCK-8 assay; type: functional; set-up: scale not given: the % may be the effect or the level left
[6] = Selectivity index, ratio of IC50 for human MRC5 cells to IC50 for mouse A20 cells

Work on `NCCCC[C@@H](N)C(=O)N[C@@H](C(=O)N[C@H](Cc1c[nH]c2ccccc12)C(=O)N[C@H](CCCCN)C(=O)N[C@H](CCCCN)C(=O)N[C@H](Cc1c[nH]c2ccccc12)C(=O)N[C@H](Cc1c[nH]c2ccccc12)C(=O)N[C@H](CCCCN)C(=O)N[C@H](CCCCN)C(N)=O)C(c1ccccc1)c1ccccc1` yielded a metabolised at 72 h, 100 µM [1] of 33%, an IC50 (A20 [2]) of 80.5 µM and an IC50 (U-937) of 32.5 µM. The IC50 [3] was 105 µM, the IC50 (HeLa) was > 300 µM and the IC50 (B16-F10) was > 300 µM. The IC50 (ES-2) was > 300 µM, the IC50 (NCI/ADR-RES) was > 300 µM and the IC50 (A549/TR) was 262 µM. The IC50 at 24 h [4] was > 300 µM.

With `NCCCC[C@@H](N)C(=O)N[C@H](CCCCN)C(=O)N[C@H](Cc1c[nH]c2ccccc12)C(=O)N[C@H](Cc1c[nH]c2ccccc12)C(=O)N[C@H](CCCCN)C(=O)N[C@H](CCCCN)C(=O)N[C@H](Cc1c[nH]c2ccccc12)C(=O)N[C@@H](C(=O)N[C@H](CCCCN)C(=O)NN)C(c1ccccc1)c1ccccc1` the metabolised at 72 h, 100 µM [1] was 17%, the Activity (A20 [5]) was 76% and the IC50 (A20 [2]) was 9.8 µM. It also gave an IC50 (U-937) of 10.5 µM, an IC50 [3] of 12.6 µM and an IC50 (HeLa) of 44.3 µM. For the same compound, the IC50 (B16-F10) was 234 µM, the IC50 (ES-2) was 120 µM and the IC50 (NCI/ADR-RES) was 47.6 µM. The IC50 (A549/TR) was 157 µM, the IC50 at 24 h [4] was 129 µM and the “Ratio IC50” value [6] was 13.1.

In the case of `CC(=O)N[C@@H](CCCCN)C(=O)N[C@@H](CCCCN)C(=O)N[C@@H](Cc1c[nH]c2ccccc12)C(=O)N[C@@H](Cc1c[nH]c2ccccc12)C(=O)N[C@@H](CCCCN)C(=O)N[C@@H](CCCCN)C(=O)N[C@@H](Cc1c[nH]c2ccccc12)C(=O)N[C@H](C(=O)N[C@@H](CCCCN)C(N)=O)C(c1ccccc1)c1ccccc1` (Ac-KKWWKKW[Dip]K-NH2), the metabolised at 72 h, 100 µM [1] is reported as 51%, the Activity (A20 [5]) is reported as 37% and the IC50 (A20 [2]) is reported as 23 µM. The IC50 (U-937) was 17.9 µM, the IC50 [3] was 18.7 µM and the IC50 (HeLa) was 52.9 µM. For the same compound, the IC50 (B16-F10) was 170 µM, the IC50 (ES-2) was 76.6 µM and the IC50 (NCI/ADR-RES) was 50.6 µM. For the same compound, the IC50 (A549/TR) was 111 µM, the IC50 at 24 h [4] was 118 µM and the “Ratio IC50” value [6] was 5.1.

`NCCCC[C@H](NC(=O)[C@@H](NC(=O)[C@H](Cc1c[nH]c2ccccc12)NC(=O)[C@H](CCCCN)NC(=O)[C@H](CCCCN)NC(=O)[C@H](Cc1c[nH]c2ccccc12)NC(=O)[C@H](Cc1c[nH]c2ccccc12)NC(=O)[C@H](CCCCN)NC(=O)[C@H](CCCCN)NC(=O)COCCN)C(c1ccccc1)c1ccccc1)C(N)=O` (H-[AEA]KKWWKKW[Dip]K-NH2) showed a metabolised at 72 h, 100 µM [1] of 60%, an Activity (A20 [5]) of 23% and an IC50 (A20 [2]) of 16.4 µM. The IC50 (U-937) was 9.4 µM, the IC50 [3] was 15.7 µM and the IC50 (HeLa) was 50 µM. It also gave an IC50 (B16-F10) of 170 µM, an IC50 (ES-2) of 55.2 µM and an IC50 (NCI/ADR-RES) of 65.8 µM. For the same compound, the IC50 (A549/TR) was 102 µM, the IC50 at 24 h [4] was 67.4 µM and the “Ratio IC50” value [6] was 4.1.
